≈ marks a conversion by molar mass, not a printed value.

Drawing on ChEMBL document CHEMBL5113436, “WCK 4034: A promising oxazolidinone for treating gram positive infections” (Bioorg Med Chem Lett, 2022), this text covers MIC and ED50 for 14 compounds.

Type in all cases: functional
In test [1] the test system is Staphylococcus aureus. The test is described as follows: Antibacterial activity against methicillin-sensitive Staphylococcus aureus Sta-001 incubated for 18 hrs by CLSI protocol based two-fold serial agar dilution method. A general note: In agar dilution, organisms are placed on agar that contains the substance at set levels.
The test system of test [2] is Staphylococcus aureus. The test is described as follows: Antibacterial activity against methicillin-resistant Staphylococcus aureus Sta-032 incubated for 18 hrs by CLSI protocol based two-fold serial agar dilution method.
The test system of test [3] is Streptococcus pneumoniae. The test is described as follows: Antibacterial activity against Streptococcus pneumoniae ATCC 49619 incubated for 18 hrs by CLSI protocol based two-fold serial agar dilution method.
In test [4] the test system is Haemophilus influenzae. The test is described as follows: Antibacterial activity against Haemophilus influenzae […] ATCC 35054 incubated for 18 hrs by CLSI protocol based two-fold serial agar dilution method.
The test system of test [5] is Staphylococcus aureus. As to the kind of experiment: Antibacterial activity against Staphylococcus aureus Sta-5027 infected in Swiss mouse model of septicemia administered by oral route 1 h and 5 h post-infection. As to conditions: Sta-5027, 168 h, time 7 day.
For test [6], the system named is Staphylococcus aureus. The test is described as follows: Antibacterial activity against Linezolid-resistant Staphylococcus aureus Sta-5059 incubated for 18 hrs by CLSI protocol based two-fold serial agar dilution method.
Test [7] has as its system Staphylococcus aureus. As to the kind of experiment: Antibacterial activity against Linezolid-resistant Staphylococcus aureus Sta-5060 incubated for 18 hrs by CLSI protocol based two-fold serial agar dilution method.

On to `CC(=O)NC[C@H]1CN(c2cc(F)c(N3CCC4(OCCO4)[C@H](F)C3)c(F)c2)C(=O)O1`, for which the MIC is 8 µg/mL (≈ 18.6 µM) in test [1]; 8 µg/mL (≈ 18.6 µM) in test [2]; 2 µg/mL (≈ 4.66 µM) in test [3]; 16 µg/mL (≈ 37.3 µM) in test [4]; greater than 8 µg/mL in test [6]; greater than 8 µg/mL in test [7]. Besides, the 50% effect level in test [5] (ED50) was put at a dose of 2.5 mg/kg.

With `O=C1O[C@@H](Cn2ccnn2)CN1c1ccc(N2CCC3(OCCO3)C(F)C2)c(F)c1` (some centres undefined), the MIC in test [1] is 16 µg/mL (≈ 38 µM); in test [2], 3.12 µg/mL (≈ 7.4 µM); in test [3] it was 4 µg/mL (≈ 9.49 µM); in test [4], greater than 16 µg/mL.

On to `CC(=O)NC[C@H]1CN(c2ccc(N3CCC4(CC3)OCCO4)c(F)c2)C(=O)O1`, for which the MIC stood at 4 µg/mL (≈ 10.2 µM) in test [1], 4 µg/mL (≈ 10.2 µM) in test [2], 4 µg/mL (≈ 10.2 µM) in test [3] and 16 µg/mL (≈ 40.7 µM) in test [4]. Moreover, the ED50 in test [5] was found to be 5 mg/kg.

Consider `CC(=O)NC[C@H]1CN(c2ccc(N3CCC4(CC3)OCC(C)(C)CO4)c(F)c2)C(=O)O1`, for which the MIC in test [1] was 16 µg/mL (≈ 36.7 µM); in test [2], 16 µg/mL (≈ 36.7 µM); in test [3], 8 µg/mL (≈ 18.4 µM); in test [4], greater than 16 µg/mL.

Turning to `CC(=O)NC[C@H]1CN(c2ccc(N3CCC4(CC3)COCO4)c(F)c2)C(=O)O1`, the MIC in test [1] was 4 µg/mL (≈ 10.2 µM); in test [2], 4 µg/mL (≈ 10.2 µM); in test [3] it was 2 µg/mL (≈ 5.08 µM); in test [4], greater than 16 µg/mL. The same compound yielded an ED50 in test [5] of 5 mg/kg.

Turning to `CC(=O)NC[C@H]1CN(c2ccc(N3CCC4(CC3)OCCS4)c(F)c2)C(=O)O1`, the MIC in test [1] is 4 µg/mL (≈ 9.77 µM); in test [2], 4 µg/mL (≈ 9.77 µM); in test [3], 4 µg/mL (≈ 9.77 µM); in test [4], greater than 16 µg/mL. Besides, the ED50 in test [5] amounted to 10 mg/kg.

Consider `CC(=O)NC[C@H]1CN(c2ccc(N3CCC4(OCCO4)C(C)(C)C3)c(F)c2)C(=O)O1`, for which the figures for the MIC in test [2], in test [3] and in test [4] were 12.5 µg/mL (≈ 29.7 µM), 4 µg/mL (≈ 9.49 µM) and 2 µg/mL (≈ 4.75 µM), respectively.

The compound `CC(=O)NC[C@H]1CN(c2ccc(N3CCC4(CC3)OCC(C)O4)c(F)c2)C(=O)O1` (some centres undefined) came in with an MIC in test [2] of 8 µg/mL (≈ 19.6 µM). Besides, the ED50 in test [5] is greater than 20 mg/kg.

On to `CC(=O)NC[C@H]1CN(c2ccc(N3CCCC4(C3)OCCO4)c(F)c2)C(=O)O1`, for which the MIC was determined as 4 µg/mL (≈ 10.2 µM) in test [1], 4 µg/mL (≈ 10.2 µM) in test [2], 4 µg/mL (≈ 10.2 µM) in test [3] and 16 µg/mL (≈ 40.7 µM) in test [4]. Moreover, the ED50 in test [5] came out at 5 mg/kg.

As for `O=C1O[C@@H](Cn2ccnn2)CN1c1cc(F)c(N2CCC3(OCCO3)C(F)C2)c(F)c1` (some centres undefined), the MIC in test [1] was 8 µg/mL (≈ 18.2 µM); in test [2] it was 4 µg/mL (≈ 9.1 µM); in test [3], 2 µg/mL (≈ 4.55 µM); in test [4], greater than 16 µg/mL.

Take `CC(=O)NC[C@H]1CN(c2ccc(N3CCC4(CCO4)CC3)c(F)c2)C(=O)O1`: the MIC in test [1] was 16 µg/mL (≈ 42.4 µM); in test [2], 6.25 µg/mL (≈ 16.6 µM); in test [3] it was 4 µg/mL (≈ 10.6 µM); in test [4], greater than 16 µg/mL. For the same compound, the ED50 in test [5] is 20 mg/kg.

For the compound `CC(=O)NC[C@H]1CN(c2ccc(N3CCC4(CC3)COCCO4)c(F)c2)C(=O)O1`, the MIC in test [1] was 4 µg/mL (≈ 9.82 µM); in test [2], 4 µg/mL (≈ 9.82 µM); in test [3], 2 µg/mL (≈ 4.91 µM); in test [4], greater than 16 µg/mL. In addition, in test [5], the ED50 was greater than 10 mg/kg.

Consider `CC(=O)NC[C@H]1CN(c2ccc(N3CCC4(CC3)COCCCO4)c(F)c2)C(=O)O1`, for which the MIC in test [1] was 8 µg/mL (≈ 19 µM); in test [2], 4 µg/mL (≈ 9.49 µM); in test [3], 4 µg/mL (≈ 9.49 µM); in test [4], greater than 16 µg/mL. Besides, in test [5], the 50% effective dose (ED50) came out at 10 mg/kg.

`CC(=O)NC[C@H]1CN(c2ccc(N3CCC4(CC3)NCCO4)c(F)c2)C(=O)O1`: the MIC in test [1] was determined as 2 µg/mL (≈ 5.1 µM); in test [2] it was 2 µg/mL (≈ 5.1 µM); in test [3], 2 µg/mL (≈ 5.1 µM); in test [4] it was 8 µg/mL (≈ 20.4 µM). It took a dose of 20 mg/kg to reach the 50% effect level in test [5] (ED50).

As a reminder, the ED50 is the midpoint of the dose-response relation. A low value points to greater potency.
